Measured values published in patent US8097654B2, “Radiolabeled 3-[3-(benzoyl-amido)benzyloxy]aspartic acid derivative and method of producing the same” (Suntory Holdings Limited, priority 2004, dated 2012).

Legend:
EAAT5 = molecular target: T1, EAAT5 (Homo sapiens, UniProt O00341); assay: Saturation binding / Scatchard analysis, EAAT5 expressed on COS-1 cells; details: COS-1 cell membrane preparation
T1 construct: expressed in transfected cells; host or cells: COS-1 cells (membrane preparation)
Protocol: (§1) About 20 ml of a medium contained in a T-flask (150 cm^2) was inoculated with COS-1 cells expressing EAAT which were then incubated therein until they reached confluence. After aspiration of the medium, the cells were washed with about 10 ml of phosphate buffered saline (PBS). After adding 4 ml of 0.25% trypsin/1 mM EDTA and allowing to stand for 5 minutes, 6 ml of the medium was added and the cells were collected into a 50 ml tube. Then they were centrifuged at 1200 rpm for 2 minutes and the supernatant was aspirated. The residue was thoroughly homogenized in a binding buffer (50 mM Tris-HCl (pH 7.4), 120 mM NaCl, 5 mM KCl, 2.5 mM CaCl2, 1 mM MgCl2) with the use of a Polytron homogenizer on ice. The homogenate was centrifuged at 30,000×g at 4° C. for 20 minutes. […]
(§2) Then the reaction was ceased by filtering the mixture through a GF/C filter (Whatman) having been soaked in a 0.1% poly-L-lysine hydrobromide solution for an hour followed by washing with 20 mM Tris buffer. After drying the filter, a solid scintillator MeltiLex A (PerkinElmer) was melted-on and the radioactivity was measured with a β-counter. The radioactivity of the sample free from TFB-TBOA was referred to as the total binding amount, while the radioactivity of the sample containing TFB-TBOA was referred to as the nonspecific binding amount. Then the difference was calculated as the specific binding amount.

EAAT4 = molecular target: T2, EAAT4 (Homo sapiens, UniProt P48664); assay: Saturation binding / Scatchard analysis, EAAT4 expressed on COS-1 cells; details: COS-1 cell membrane preparation
T2 construct: expressed in transfected cells; host or cells: COS-1 cells (membrane preparation)
T2 sequence (P48664 1-564): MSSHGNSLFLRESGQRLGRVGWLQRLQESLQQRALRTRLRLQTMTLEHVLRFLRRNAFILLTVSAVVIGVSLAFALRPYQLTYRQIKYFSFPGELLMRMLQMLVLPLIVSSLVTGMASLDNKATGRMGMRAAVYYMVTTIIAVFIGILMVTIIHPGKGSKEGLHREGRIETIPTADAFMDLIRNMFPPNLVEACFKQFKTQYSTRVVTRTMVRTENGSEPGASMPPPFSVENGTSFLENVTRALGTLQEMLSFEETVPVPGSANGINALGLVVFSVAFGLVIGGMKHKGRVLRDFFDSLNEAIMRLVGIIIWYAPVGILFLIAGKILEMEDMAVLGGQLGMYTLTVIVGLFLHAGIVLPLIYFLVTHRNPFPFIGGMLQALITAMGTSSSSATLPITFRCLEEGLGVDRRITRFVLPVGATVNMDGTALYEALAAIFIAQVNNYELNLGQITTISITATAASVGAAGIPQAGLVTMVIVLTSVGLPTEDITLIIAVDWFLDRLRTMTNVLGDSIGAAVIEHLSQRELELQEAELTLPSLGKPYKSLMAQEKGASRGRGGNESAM
Protocol: as §1, §2

EAAT2 [1] = molecular target: T3, EAAT2 (Homo sapiens, UniProt P43004); assay: Saturation binding / Scatchard analysis, EAAT2 expressed on COS-1 cells; parameters: expressed in transfected cells; host or cells: COS-1 cells (membrane preparation); details: COS-1 cell membrane preparation
Protocol: as §1, §2

human EAAT3 = molecular target: T4, human EAAT3 (Homo sapiens, UniProt P43005); assay: Inhibition of [14C]-glutamic acid uptake by EAAT3 expressed in MDCK or COS-1 cells; assay type: cell-based; details: 1 μM L-[14C]-glutamic acid, 12 minutes
T4 construct: expressed in transfected cells
T4 sequence (P43005 1-524): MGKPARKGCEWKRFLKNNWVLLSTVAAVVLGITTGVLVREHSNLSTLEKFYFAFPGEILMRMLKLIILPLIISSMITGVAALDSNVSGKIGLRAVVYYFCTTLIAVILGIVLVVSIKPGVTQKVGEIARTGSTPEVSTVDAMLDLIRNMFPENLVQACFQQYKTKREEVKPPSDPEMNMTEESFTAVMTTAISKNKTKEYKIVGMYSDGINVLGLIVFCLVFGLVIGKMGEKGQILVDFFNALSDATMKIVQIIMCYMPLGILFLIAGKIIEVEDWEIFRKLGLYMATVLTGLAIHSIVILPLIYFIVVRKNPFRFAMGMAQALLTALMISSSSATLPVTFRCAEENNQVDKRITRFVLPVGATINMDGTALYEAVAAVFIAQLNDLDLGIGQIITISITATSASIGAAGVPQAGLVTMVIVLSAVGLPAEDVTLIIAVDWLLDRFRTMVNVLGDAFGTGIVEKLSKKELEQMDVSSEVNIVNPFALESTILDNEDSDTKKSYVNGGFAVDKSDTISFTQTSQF
Protocol: (§3) In accordance with a known method (Shimamoto, K. et al., Mol. Pharmacol. 53, 195-201, 1998; Bioorg. Med. Chem. Lett. 10, 2407-2410, 2000), the inhibitory activity was assayed as the ability to inhibit the uptake of [^14C]-glutamic acid by human EAAT2 and EAAT3 stably expressed in MDCK (Madin-Darby canine kidney) cells or transiently expressed in COS-1 cells. The glutamate uptake activity was assayed by incubating a mixture of 1 μM of L-[^14C]-glutamic acid with a sample compound at a predetermined concentration for 12 minutes, lysing the cells and then measuring the radioactivity incorporated into the cells with a liquid scintillator. The amount of uptake was expressed in percentage by referring the amount of uptake in the absence of a test compound (i.e., the buffer alone) as 100% and referring the amount of uptake in a sodium-free solution as 0%.

EAAT2 [2] = molecular target: T3, EAAT2; assay: Inhibition of [14C]-glutamic acid uptake by EAAT2 expressed in MDCK or COS-1 cells; assay type: cell-based; parameters: expressed in transfected cells; details: 1 μM L-[14C]-glutamic acid, 12 minutes
Protocol: as §3

T3 sequence (P43004 whole entry): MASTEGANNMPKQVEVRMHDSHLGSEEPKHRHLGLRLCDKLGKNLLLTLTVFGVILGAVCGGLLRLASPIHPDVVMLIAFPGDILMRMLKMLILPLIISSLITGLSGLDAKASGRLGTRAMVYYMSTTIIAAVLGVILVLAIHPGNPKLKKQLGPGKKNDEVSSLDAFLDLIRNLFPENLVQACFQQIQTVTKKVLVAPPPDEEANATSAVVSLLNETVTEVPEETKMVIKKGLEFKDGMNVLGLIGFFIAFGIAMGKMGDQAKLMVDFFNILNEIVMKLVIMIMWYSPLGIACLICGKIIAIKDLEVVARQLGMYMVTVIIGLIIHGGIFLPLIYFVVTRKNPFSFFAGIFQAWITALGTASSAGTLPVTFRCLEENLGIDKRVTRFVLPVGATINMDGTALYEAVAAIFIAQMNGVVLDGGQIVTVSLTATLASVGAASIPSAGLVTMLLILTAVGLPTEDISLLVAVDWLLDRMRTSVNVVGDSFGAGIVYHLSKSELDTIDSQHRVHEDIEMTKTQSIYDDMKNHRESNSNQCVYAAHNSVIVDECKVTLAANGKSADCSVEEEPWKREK
T1 sequence (O00341 whole entry, species assumed): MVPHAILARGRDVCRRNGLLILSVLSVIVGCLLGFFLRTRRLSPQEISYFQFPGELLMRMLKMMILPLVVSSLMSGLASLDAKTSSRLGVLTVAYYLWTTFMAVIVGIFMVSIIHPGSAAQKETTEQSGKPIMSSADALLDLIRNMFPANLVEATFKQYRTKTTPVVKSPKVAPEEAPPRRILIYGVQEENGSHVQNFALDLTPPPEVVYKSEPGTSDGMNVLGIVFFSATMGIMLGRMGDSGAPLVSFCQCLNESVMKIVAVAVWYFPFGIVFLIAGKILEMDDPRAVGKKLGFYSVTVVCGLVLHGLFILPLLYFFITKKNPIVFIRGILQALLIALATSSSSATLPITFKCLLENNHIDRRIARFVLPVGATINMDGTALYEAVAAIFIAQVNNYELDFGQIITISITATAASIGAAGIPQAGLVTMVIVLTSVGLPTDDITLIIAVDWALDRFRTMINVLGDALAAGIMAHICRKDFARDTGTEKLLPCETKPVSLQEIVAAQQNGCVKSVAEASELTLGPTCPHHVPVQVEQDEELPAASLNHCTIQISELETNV

SMILES | Kd (EAAT5) | Kd (EAAT4) | Kd (EAAT2 [1]) | IC50 (human EAAT3) | IC50 (EAAT2 [2])
[3H]CC([3H])c1ccc(C(=O)Nc2cccc(CO[C@H](C(=O)O)[C@H](N)C(=O)O)c2)cc1 (stereo partly drawn) [(^3H)Et-BzA-TBOA] | 30 nM | 13 nM | 26 nM |  | 
NC(C(=O)O)C(OCc1ccccc1)C(=O)O [L-TBOA, threo-β-benzyloxyaspartic acid, reference compound] |  |  |  | 1300 ± 120 nM | 1300 ± 120 nM
N[C@H](C(=O)O)[C@H](OCc1cccc(NC(=O)c2ccc(I)cc2)c1)C(=O)O [I-BzA-TBOA, (2S,3S)-3-[3-(4-iodobenzoylamino)benzyloxy]aspartic acid] |  |  |  | 56 ± 1.8 nM | 4.8 ± 0.32 nM
N[C@H](C(=O)O)[C@H](OCc1cccc(NC(=O)c2ccc(C(F)(F)F)cc2)c1)C(=O)O [TFB-TBOA, reference compound] |  |  |  | 28 ± 1.8 nM | 1.9 ± 0.1 nM
